Data published in ChEMBL document CHEMBL5727499, “Derivatives and methods of treating hepatitis B infections” (2020).
“Also recorded” adds a separate entry of the source.

Assay: HBV Replication Inhibition Assay: HBV replication inhibition by the compounds of this invention could be determined in cells infected or transfected with HBV, or cells with stably integrated HBV, such as HepG2.2.15 cells (Sells et al. 1987). In this example, HepG2.2.15 cells were maintained in cell culture medium containing 10% fetal bovine serum (FBS), Geneticin, L-glutamine, penicillin and streptomycin. HepG2.2.15 cells could be seeded in 96-well plates at a density of 40,000 cells/well and be treated with serially diluted compounds at a final DMSO concentration of 0.5% either alone or in combination by adding drugs in a checker box format. Cells were incubated with compounds for three days, after which medium was removed and fresh medium containing compounds was added to cells and incubated for another three days. At day 6, supernatant was removed and treated with DNase at 37° C. for 60 minutes, followed by enzyme inactivation at 75° C. for 15 minutes. Encapsidated HBV DNA was released from the virions and covalently linked HBV polymerase by incubating in lysis buffer (Affymetrix QS0010) containing 2.5 μg proteinase K at 50° C. for 40 minutes. HBV DNA was denatured by addition of 0.2 M NaOH and detected using a branched DNA (BDNA) QuantiGene assay kit according to manufacturer recommendation (Affymetrix). HBV DNA levels could also be quantified using qPCR, based on amplification of encapsidated HBV DNA extraction with QuickExtraction Solution (Epicentre Biotechnologies) and amplification of HBV DNA using HBV specific PCR probes that can hybridize to HBV DNA and a fluorescently labeled probe for quantitation. In addition, cell viability of HepG2.2.15 cells incubated with test compounds alone or in combination was determined by using CellTitre-Glo reagent according to the manufacturer protocol (Promega). The mean background signal from wells containing only culture medium was subtracted from all other samples, and percent inhibition at each compound concentration was calculated by normalizing to signals from HepG2.2.15 cells treated with 0.5% DMSO using equation E1.% inhibition=(DMSOave−Xi)/DMSOave×100% E1:where DMSOave is the mean signal calculated from the wells that were treated with DMSO control (0% inhibition control) and Xi is the signal measured from the individual wells. EC50 values, effective concentrations that achieved 50% inhibitory effect, were determined by non-linear fitting using Graphpad Prism software (San Diego, Calif.) and equation E2Y=Y min+(Y max−Y min)/(1+10(Log EC50−X)×HillSlope) E2:where Y represents percent inhibition values and X represents the logarithm of compound concentrations.

Row | SMILES | EC50 (HepG2.2.15) | EC50
1 | O=C(Nc1ccc(F)c(F)c1)N1CCc2[nH]nc(C3CCC3)c2C1 | in the range around 0.3 µM | –
2 | O=C(Nc1cccc(Cl)c1)N1CCc2[nH]nc(Br)c2C1 | > 10 µM | –
3 | CC(CO)c1n[nH]c2c1CN(C(=O)Nc1cccc(Cl)c1)CC2 (centres undefined) | > 10 µM | –
4 | CC1Cc2[nH]nc(C3CCCO3)c2CN1C(=O)Nc1cccc(Br)c1 (centres undefined) | in the range around 0.055 µM | –
5 | CCC(C)(C)c1n[nH]c2c1CN(C(=O)Nc1cccc(Cl)c1)CC2 | in the range around 0.3 µM | –
6 | Cc1cc(NC(=O)N2CCc3[nH]nc(C45CCCC4C5)c3C2)ccc1F (centres undefined) | in the range around 0.055 µM | –
7 | N#Cc1cc(NC(=O)N2CCc3[nH]nc(C45CCCC4C5)c3C2)ccc1F (centres undefined) | in the range around 0.055 µM | –
8 | CC1Cc2[nH]nc(C3CCCC3)c2CN1C(=O)Nc1ccc(F)c(Br)c1 (centres undefined) | in the range around 0.055 µM | in the range around 0.055 µM
9 | C=C(C)c1n[nH]c2c1CN(C(=O)Nc1ccnc(Cl)c1F)CC2 | in the range around 0.3 µM | –
10 | O=C(Nc1cccc(Cl)c1)N1CCc2[nH]nc(C3=CCCC3)c2C1 | in the range around 0.055 µM | –
11 | CC1Cc2[nH]nc(C3CCCO3)c2CN1C(=O)Nc1ccc(F)c(Br)c1 (centres undefined) | – | in the range around 55 nM; also recorded: in the range around 300 nM
12 | O=C(Nc1cccc(Cl)c1)N1CCc2[nH]nc(C34CCCC3C4)c2C1 (centres undefined) | in the range around 0.055 µM | –
13 | O=C(Nc1ccnc(Br)c1F)N1CCc2[nH]nc(C34CCCC3C4)c2C1 (centres undefined) | in the range around 0.055 µM | –
14 | O=C(Nc1cccc(Cl)c1)N1CCc2[nH]nc(C3=CC(F)CC3)c2C1 (centres undefined) | in the range around 0.055 µM | –
15 | Cc1cccc(NC(=O)N2Cc3c(C4CCCC4)n[nH]c3CC2C)c1 (centres undefined) | in the range around 0.055 µM | in the range around 0.055 µM
16 | CC1Cc2[nH]nc(C3CCCC3)c2CN1C(=O)Nc1ccc(F)c(Cl)c1 (centres undefined) | in the range around 0.055 µM | in the range around 0.055 µM
17 | CC1(c2n[nH]c3c2CN(C(=O)Nc2cccc(Cl)c2)CC3)CCC1 | in the range around 0.055 µM | –
18 | Cc1cc(NC(=O)N2Cc3c(C4CCCO4)n[nH]c3CC2C)ccc1F (centres undefined) | – | in the range around 55 nM; also recorded: in the range around 300 nM
19 | CCCc1n[nH]c2c1CN(C(=O)Nc1cccc(Cl)c1)CC2 | in the range around 0.3 µM | –

Row | SMILES | EC50 (HepG2.2.15) | EC50
20 | O=C(Nc1cccc(Cl)c1)N1CCc2[nH]nc(N3CCCC3)c2C1 | in the range around 0.3 µM | –
21 | O=C(Nc1cccc(Cl)c1)N1CCc2[nH]nc(C3=CCOCC3)c2C1 | in the range around 0.3 µM | –
22 | C=C(C)c1n[nH]c2c1CN(C(=O)Nc1cccc(Br)c1F)CC2 | in the range around 0.055 µM | –
23 | CC(C)(O)c1n[nH]c2c1CN(C(=O)Nc1cccc(Cl)c1)CC2 | > 10 µM | –
24 | CC1Cc2[nH]nc(C3CCCC3)c2CN1C(=O)Nc1cccc(Br)c1 (centres undefined) | in the range around 0.055 µM | in the range around 0.055 µM
25 | O=C(Nc1cccc(Cl)c1)N1CCc2[nH]nc(C3CCC3)c2C1 | in the range around 0.055 µM | –
26 | O=C(Nc1cccc(Cl)c1)N1CCc2[nH]nc(C3(C(F)(F)F)CC3)c2C1 | in the range around 0.3 µM | –
27 | Cc1cccc(NC(=O)N2Cc3c(C4CCC4)n[nH]c3CC2C)c1 (centres undefined) | in the range around 0.055 µM | –
28 | O=C(Nc1cccc(Cl)c1)N1CCc2[nH]nc(C3CC3)c2C1 | in the range around 0.3 µM | –
29 | CC1Cc2[nH]nc(C3CCCC3)c2CN1C(=O)Nc1ccnc(Br)c1F (centres undefined) | in the range around 0.055 µM | in the range around 0.055 µM
30 | Cc1cccc(NC(=O)N2Cc3c(C4CCCO4)n[nH]c3CC2C)c1 (centres undefined) | in the range around 0.3 µM | –
31 | CC1Cc2[nH]nc(C3CCC3)c2CN1C(=O)Nc1ccnc(Br)c1F (centres undefined) | in the range around 0.3 µM | in the range around 0.3 µM
32 | O=C(Nc1cccc(Br)c1F)N1CCc2[nH]nc(C34CCCC3C4)c2C1 (centres undefined) | in the range around 0.055 µM | –
33 | CC1Cc2[nH]nc(C3CCC3)c2CN1C(=O)Nc1ccc(F)c(C#N)c1 (centres undefined) | in the range around 0.055 µM | –
34 | O=C(Nc1cccc(Cl)c1)N1CCc2[nH]nc(C3CCOCC3)c2C1 | in the range around 0.3 µM | –
35 | CCCC(F)(F)c1n[nH]c2c1CN(C(=O)Nc1cccc(Cl)c1)CC2 | in the range around 0.055 µM | –
36 | N#Cc1cc(NC(=O)N2CCc3[nH]nc(C4CCC4)c3C2)ccc1F | in the range around 0.055 µM | –
37 | O=C(Nc1cccc(Cl)c1)N1CCc2[nH]nc(C3CC=CC3)c2C1 | in the range around 0.055 µM | –
38 | Cc1cccc(NC(=O)N2CCc3[nH]nc(C45CCCC4C5)c3C2)c1 (centres undefined) | in the range around 0.055 µM | –
